Patent US11066369B2, “N-(pyridin-2-yl)pyridine-sulfonamide derivatives and their use in the treatment of disease” (Novartis AG, priority 2016, dated 2021)
Where a name gives a salt, the structure may show the parent alone.

Experiments:
[1] = molecular target: T1, horseradish peroxidase (HRP) tagged delF508-CFTR (Homo sapiens, UniProt P13569, DEL508-508); assay: Measurement of delF508-CFTR-HRP surface expression in CFBE41o- cells; assay type: cell-based; details: delF508-CFTR-HRP surface expression, CFBE41o- cells; for Emax: read-out: DelF508-CFTR-HRP Amax %; for EC50: read-out: DelF508-CFTR-HRP EC50;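 on DelF508-CFTR-HRP Amax %: percent efficacy relative to reference corrector lumacaftor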
T1 construct: expressed in transfected cells
T1 sequence (P13569 with tags, fused parts or gaps DEL508-508): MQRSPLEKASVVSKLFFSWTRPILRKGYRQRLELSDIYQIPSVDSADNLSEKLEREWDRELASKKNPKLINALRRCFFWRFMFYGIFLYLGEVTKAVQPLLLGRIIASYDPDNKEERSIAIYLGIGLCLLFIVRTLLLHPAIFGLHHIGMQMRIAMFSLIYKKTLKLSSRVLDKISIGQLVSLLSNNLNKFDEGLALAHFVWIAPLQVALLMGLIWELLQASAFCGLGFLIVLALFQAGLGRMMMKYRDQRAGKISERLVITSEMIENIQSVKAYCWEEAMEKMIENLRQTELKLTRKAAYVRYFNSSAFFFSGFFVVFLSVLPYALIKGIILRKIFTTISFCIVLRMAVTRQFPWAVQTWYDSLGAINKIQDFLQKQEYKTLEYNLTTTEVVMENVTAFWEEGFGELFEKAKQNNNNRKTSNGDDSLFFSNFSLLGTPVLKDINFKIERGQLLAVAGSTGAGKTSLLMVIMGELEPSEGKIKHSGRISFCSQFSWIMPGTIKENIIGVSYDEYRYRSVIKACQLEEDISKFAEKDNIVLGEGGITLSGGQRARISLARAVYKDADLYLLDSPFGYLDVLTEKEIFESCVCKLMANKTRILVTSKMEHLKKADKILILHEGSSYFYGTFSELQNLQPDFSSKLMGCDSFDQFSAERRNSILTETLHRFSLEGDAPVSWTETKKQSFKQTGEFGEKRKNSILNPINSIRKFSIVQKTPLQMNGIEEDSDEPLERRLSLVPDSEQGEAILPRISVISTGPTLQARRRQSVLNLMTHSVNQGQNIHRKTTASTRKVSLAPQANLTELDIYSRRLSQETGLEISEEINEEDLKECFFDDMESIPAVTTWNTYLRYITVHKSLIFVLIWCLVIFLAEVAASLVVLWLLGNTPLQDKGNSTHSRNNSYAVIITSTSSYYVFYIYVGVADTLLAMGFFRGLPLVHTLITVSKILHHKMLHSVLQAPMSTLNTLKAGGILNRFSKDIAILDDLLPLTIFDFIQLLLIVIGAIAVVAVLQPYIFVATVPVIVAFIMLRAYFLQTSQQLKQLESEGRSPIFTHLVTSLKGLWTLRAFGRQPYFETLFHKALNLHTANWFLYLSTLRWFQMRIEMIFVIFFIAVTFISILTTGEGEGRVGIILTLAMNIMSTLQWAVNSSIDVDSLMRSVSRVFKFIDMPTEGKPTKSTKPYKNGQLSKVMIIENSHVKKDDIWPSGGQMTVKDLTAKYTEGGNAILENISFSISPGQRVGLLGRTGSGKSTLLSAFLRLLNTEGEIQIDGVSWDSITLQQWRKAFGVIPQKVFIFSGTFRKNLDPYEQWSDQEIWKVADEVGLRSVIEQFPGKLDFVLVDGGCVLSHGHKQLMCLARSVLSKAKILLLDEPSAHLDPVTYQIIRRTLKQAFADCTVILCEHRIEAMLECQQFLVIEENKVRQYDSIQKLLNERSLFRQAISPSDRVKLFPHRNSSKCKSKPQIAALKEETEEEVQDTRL
Method in brief: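 CFBE41o- bronchial epithelial cells stably expressing delF508-CFTR with HRP in the fourth extracellular loop; expression induced 48h with 500 ng/mL doxycycline, then compounds added (top 10 μM, 10-point 3-fold series, ≤0.5% DMSO) for 24h at 37° C. Surface HRP measured by luminescence with cell-impermeant substrate; EC50 from logistic fit of triplicates, plate-normalized to lowest concentration; efficacy also relative to a reference corrector.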

delF508-CFTR = molecular target: T2, delF508-CFTR (Homo sapiens, UniProt P13569, DEL508-508); assay: Measurement of delF508-CFTR functional activity in primary human bronchial epithelial cells (HBECs) using Multi-Transepithelial Clamp Circuit (MTECC-24) assay; assay type: cell-based; details: primary CF HBECs; for MTECC24 CFHBEC- Amax %: test compound added 24h before assay plus potentiator, relative to reference combination (2 μM corrector + 0.5 μM potentiator); for EC50: test compound added 24h before assay, in the presence of potentiator, mean of at least two replicates, read-out: MTECC24 CFHBEC- EC50
T2 construct: functional activity of the CFTR channel (Chloride ion transport) in patient derived primary human bronchial epithelial cells; host or cells: patient-derived primary human bronchial epithelial cells (delF508-CFTR)
T2 sequence (P13569 with tags, fused parts or gaps DEL508-508): as above
Excerpt: [formula] Measurement of delF508-CFTR Functional Activity in Primary Human Bronchial Epithelial Cells (HBECs) Using Multi-Transepithelial Clamp Circuit (MTECC-24) Assay
This assay measures the functional activity of the CFTR channel (Chloride ion transport) in patient derived primary human bronchial epithelial cells with forskolin activation and in the presence of the CFTR corrector/potentiator combo.
Primary human delF508-CFTR bronchial epithelial cells were purchased from Asterand and cultured according to previously established methods (Fulcher et al. (2005) Methods Mol Med 107: 183-206). Briefly, vendor supplied cells were rapidly defrosted and added to a T175 flask in 50 mL growth media (Lonza BEBM media with Lonza BEGM singlequots). Media was replaced after 24h and then cells were fed every other day until cells were 80-90% confluent, at which point cells were cryopreserved. These P1 vials were thawed at 37° C. as needed and added to T175 flasks in 50 mL growth media at 5×10^5 cells/flask. Media was replaced after 24h, and then cells were fed every other day until 80-90% confluent. Cells were lifted with 5 mL accutase at 37° C. for 5 minutes, centrifuged at 1000 rpms for 5 min (300 g), and resuspended in differentiation media (50% BEBM in DMEM, BEGM singlequots, all trans retinoic acid (5×10^−8M)). Cells were then counted and cell suspension was added to collagen coated inserts at 3×10^4 cells/insert in 0.15 mL with 0.5 mL differentiation media on the basolateral side.
Apical and basolateral media were replaced on alternate days, and following day 7 (or when confluent plus 2 days), air liquid interface was established for approximately two weeks by removal of apical media. One day prior to use on the MTECC24 system (EP-Devices, EP Design, Belgium), 0.15 mL of warmed (37° C.) PBS was added to the apical surface of the cultures and returned to humidifier (37° C., 5% CO2 incubator) for 30 min before aspirating the apical surface to remove any mucus.
Compound treatments were then prepared. Compound dilutions, typically a 10 point concentration response with 1 in 3 dilution steps, were made in 100% DMSO before dilution 1 in 1000 into differentiation medium with a final DMSO concentration of 0.1% or 0.2% for the study. Compound containing medium was then transferred into the wells of a 24 well plate at 0.5 mL per well and warmed for 30 min in a 37° C. incubator prior to transferring washed inserts into the compound containing plates. Cells were incubated in compound containing medium (basolateral only) for 24h prior to measurement in the MTECC24 system.
Following 24 hr treatment, compound dilutions were prepared again, diluted 1 in 1000 into 37° C. assay medium (F-12 Coon's modified, 20 mM HEPES pH7.4 with TRIS Base, No FCS or bicarbonate). Cells which were treated for 24h with test compound were then transferred into plates containing 0.75 mL compound treatment in assay medium (basolateral) and 0.25 mL of the compound containing assay medium was added to the apical surface. The plates were then transferred to the heated plate compartments of the MTECC24 system for 45 min prior to measurements (this can also be done in a non-CO2 37° C. humidified incubator). Basolateral temperature should not exceed 36.5° C. and apical temperature should be approximately 35.5° C.
Modulators were added sequentially as follows while the MTECC24 instrument recorded the equivalent short circuit current (Ieq):
Prior to dilution into F-12 medium the stocks are as follows:
Amiloride stock is 10 mM in H2O
Forskolin Stock is 10 mM in 100% DMSO
(S)-3-amino-6-methoxy-N-(3,3,3-trifluoro-2-hydroxy-2-methylpropyl)-5-(trifluoromethyl)picolinamide is 0.5 mM stock in 100% DMSO
INH-172 (4-[[4-Oxo-2-thioxo-3-[3-trifluoromethyl)phenyl]-5-thiazolidinylidene]methyl]benzoic acid) stock is 30 mM in 100% DMSO
The data was normalized using the median signal from wells treated with 0.1% DMSO as a baseline. […]

Emax [1] [%]	EC50 [1] [µM]	MTECC24 CFHBEC- Amax % (delF508-CFTR) [%]	EC50 (delF508-CFTR) [µM]	DelF508-CFTR-HRP Amax % [1] [%]	Compound
561	1.94	69.5	0.095	–	COC(=O)C1(N)CCN(c2cccc(S(=O)(=O)Nc3ccc(Cl)c(-c4c(C)cccc4C)n3)n2)CC1 [Example 270, methyl 4-amino-1-(6-{[5-chloro-6-(2,6-dimethylphenyl)pyridin-2-yl]sulfamoyl}pyridin-2-yl)piperidine-4-carboxylate]
389	3.06	82.4	0.0096	–	Cc1ccccc1-c1nc(NS(=O)(=O)c2cccc(N3CCN(C)C(=O)C3)n2)ccc1C(F)(F)F [Example 196, 6-(4-methyl-3-oxopiperazin-1-yl)-N-(6-(o-tolyl)-5-(trifluoromethyl)pyridin-2-yl)pyridine-2-sulfonamide]
270	2.82	57.9	0.0372	–	Cc1ccccc1-c1nc(NS(=O)(=O)c2cccc(N3CC[C@H](N)C3)n2)ccc1C(F)(F)F [Example 120, (S)-6-(3-aminopyrrolidin-1-yl)-N-(6-(o-tolyl)-5-(trifluoromethyl)pyridin-2-yl)pyridine-2-sulfonamide Hydrochloride]
724	0.967	75.5	0.008	–	Cc1cccc(C)c1-c1nc(NS(=O)(=O)c2cccc(N)n2)ccc1C(F)(F)F [Example 2, 6-amino-N-(6-(2,6-dimethylphenyl)-5-(trifluoromethyl)pyridin-2-yl)pyridine-2-sulfonamide]
218	3.15	85.2	0.238	–	Cc1ccccc1-c1nc(NS(=O)(=O)c2cccc(N[C@@H]3CCNC3)n2)ccc1C(F)(F)F [Example 123, (R)-6-(pyrrolidin-3-ylamino)-N-(6-(o-tolyl)-5-(trifluoromethyl)pyridin-2-yl)pyridine-2-sulfonamide Hydrochloride]
536	1.31	100.1	0.024	–	Cc1cccc(Cl)c1-c1nc(NS(=O)(=O)c2cccc(N)n2)ccc1Cl [Example 13, 6-amino-N-(5-chloro-6-(2-chloro-6-methylphenyl)pyridin-2-yl)pyridine-2-sulfonamide]
–	1.07	77.9	0.0015	–	Cc1ccccc1-c1nc(NS(=O)(=O)c2cccc(N[C@@H]3CCOC[C@@H]3O)n2)ccc1C(F)(F)F (racemic) [Example 275, rac-6-{[(3RS,4RS)-3-hydroxyoxan-4-yl]amino}-N-[6-(2-methylphenyl)-5-(trifluoromethyl)pyridin-2-yl]pyridine-2-sulfonamide]
132	2.81	46.7	0.0228	–	Cc1ccccc1-c1nc(NS(=O)(=O)c2cccc(N3CCC(C(=O)O)CC3)n2)ccc1C(F)(F)F [Example 344, 1-(6-{[6-(2-methylphenyl)-5-(trifluoromethyl)pyridin-2-yl]sulfamoyl}pyridin-2-yl)piperidine-4-carboxylic Acid]
427	1.71	61.1	0.0106	–	O=S(=O)(Nc1ccc(C(F)(F)F)c(-c2ccccc2Cl)n1)c1cccc(N2CC(O)C2)n1 [Example 222, N-(6-(2-chlorophenyl)-5-(trifluoromethyl)pyridin-2-yl)-6-(3-hydroxyazetidin-1-yl)pyridine-2-sulfonamide]
523	3.2	84.7	0.0185	–	Cc1ccccc1-c1nc(NS(=O)(=O)c2cccc(N[C@@H]3CCOC[C@@H]3O)n2)ccc1C(F)(F)F (single isomer, unassigned) [Example 276]
877	1.46	105.5	0.0046	–	Cc1ccccc1-c1nc(NS(=O)(=O)c2cccc(N3CCN(CC(F)F)CC3)n2)ccc1C(F)(F)F [Example 185, 6-(4-(2,2-difluoroethyl)piperazin-1-yl)-N-(6-(o-tolyl)-5-(trifluoromethyl)pyridin-2-yl)pyridine-2-sulfonamide]
–	1.51	70.1	0.00749	553.8	Cc1ccccc1-c1nc(NS(=O)(=O)c2cccc(N[C@H]3C[C@@](C)(C(=O)O)C3)n2)ccc1C(F)(F)F [Example 356, (1s,3s)-1-methyl-3-((6-(N-(6-(o-tolyl)-5-(trifluoromethyl)pyridin-2-yl)sulfamoyl)pyridin-2-yl)amino)cyclobutanecarboxylic Acid]
257	2.4	60.1	0.0154	–	O=S(=O)(Nc1ccc(C(F)(F)F)c(-c2ccccc2C(F)(F)F)n1)c1ccnc(N2CC(O)C2)c1 [Example 325, 2-(3-hydroxyazetidin-1-yl)-N-(5-(trifluoromethyl)-6-(2-(trifluoromethyl)phenyl)pyridin-2-yl)pyridine-4-sulfonamide]
529	3.42	69.8	0.224	–	Cc1ccc(F)cc1-c1nc(NS(=O)(=O)c2cccc(N3CCN[C@H](C)C3)n2)ccc1C(F)(F)F [Example 176, (R)—N-(6-(5-fluoro-2-methylphenyl)-5-(trifluoromethyl)pyridin-2-yl)-6-(3-methylpiperazin-1-yl)pyridine-2-sulfonamide Hydrochloride]
310	2.61	52.6	0.222	–	Cc1ccc(F)cc1-c1nc(NS(=O)(=O)c2ccnc(N3CC(O)C3)c2)ccc1Cl [Example 322, N-(5-chloro-6-(5-fluoro-2-methylphenyl)pyridin-2-yl)-2-(3-hydroxyazetidin-1-yl)pyridine-4-sulfonamide]
482	1.06	94.2	0.0145	–	Cc1cccc(C)c1-c1nc(NS(=O)(=O)c2ccnc(N)c2)ccc1C(F)(F)F [Example 25, 2-amino-N-(6-(2,6-dimethylphenyl)-5-(trifluoromethyl)pyridin-2-yl)pyridine-4-sulfonamide]
–	1.1	73.4	0.0054	–	Cc1ccc(F)cc1-c1nc(NS(=O)(=O)c2cccc(N[C@@H]3COCC[C@H]3O)n2)ccc1Cl [Example 278, N-[5-chloro-6-(5-fluoro-2-methylphenyl)pyridin-2-yl]-6-{[(3R,4R)-4-hydroxyoxan-3-yl]amino}pyridine-2-sulfonamide]
